Values quoted from earlier work in patent publication US7947714B2, “Piperidine glycine transporter inhibitors” (Merck, Sharp & Dohme Corp., priority 2005, dated 2011).

Legend:
[1] = patients suffering from schizophrenia, poorly responsive to antipsychotic drugs
[2] = mice
NMDA receptor = conditions: rat; blockade of GlyT1
[3] = high doses, oral, add-on to standard neuroleptic therapy

CNCC(=O)O [sarcosine]
effect on positive, negative and cognitive symptoms of schizophrenia [1]: beneficial effect was observed on positive, negative and cognitive symptoms

CN(CCC(Oc1ccc(-c2ccccc2)cc1)c1ccc(F)cc1)CC(=O)O (stereo not shown) [NFPS, (N-[3-(4′-fluorophenyl)-3-(4′-phenylphenoxy)propyl])sarcosine]
effect on pre-pulse inhibition (measure of sensory gating) [2]: enhance pre-pulse inhibition
effect on NMDA receptor activity and NMDA receptor-dependent long-term potentiation (NMDA receptor): potentiates NMDA receptor activity and NMDA receptor-dependent long-term potentiation

NCC(=O)O [glycine]
effect on symptoms of schizophrenia [3]: improvement of the symptoms
